Assay results reported in patent US5661160A, “Substituted pyrrolidin-3-yl-alkyl-piperidines” (Merrell Pharmaceuticals Inc., priority 1995, dated 1997).
Counter-ions that a name gives are not always drawn.

Experiments:
NK2 receptor = experiment: Antagonism of NKA aerosol-induced respiratory effects in conscious guinea pigs; type: in vivo, guinea pig; details: dose dependent
Description: (§1) In vivo experiments were performed using male Duncan Hartley guinea pigs (250-350 g). Changes in conscious breathing patterns were monitored in four animals simultaneously using modified whole body plethysmography consisting of four small plexiglass boxes each connected to a reference box via Validyne DP 45-16 differential pressure transducers. The 4 boxes were equipped with an air supply line (also used for aerosol delivery) and an exhaust air line. Supply and exhaust lines were of the same length and narrow bore and arose from a common supply chamber and vented to a common exhaust chamber. This system was used to ensure that fluctuations in supply air and atmospheric pressure would remain in phase and be eliminated from the net signal by the differential pressure transducers. The analog pressure signals were digitalized via a Data Translation DT2821 A to D board. Data were collected at a rate of 100 samples/second/animal. Each cycle of pressure change was analyzed using the following parameters: rising and falling slope determined between minimum and maximum pressures, the ratio of rising over falling slope, and the magnitude of the change between initial trough pressure and peak cycle pressure. Using these values (and observing the animals) the pressure cycles were characterized into normal breaths, forced exhalations (apparent by abdominal heaving), significant respiratory events (SREs; usually coughs, less often sneezes or gasps which were characterized by transient, extremely large pressure increases which were distinguishable from noise) and movement/noise with a PCAT 286 running a System V UNIX operating system. Dyspnea was defined as a significant, sustained increase in plethysmograph pressure which was associated with an observable shift to labored breathing in the animal.
During the course of a typical experiment in which airway responsiveness to various bronchoconstricting agents was examined, aerosols were delivered for 19 min (0.33 ml/min) using a DeVilbiss Ultraneb 99 ultrasonic nebulizer and animals monitored during this time. […]

[1] = molecular target: T1, NK2 receptor (SKLKB82#3 cells) (Bos taurus, UniProt P05363); experiment: Antagonism of NK2 receptor mediated (NKA-induced) phosphatidylinositol turnover in SKLKB82#3 cells; type: cell-based; details: for NK-2 RECEPTOR -SLOPE: Schild analysis, NKA, mean (95% confidence limits)
T1 construct: expressed in transfected cells; host or cells: SKLKB82#3 cells (mouse B82 fibroblasts, own knowledge)
T1 sequence (P05363 1-384): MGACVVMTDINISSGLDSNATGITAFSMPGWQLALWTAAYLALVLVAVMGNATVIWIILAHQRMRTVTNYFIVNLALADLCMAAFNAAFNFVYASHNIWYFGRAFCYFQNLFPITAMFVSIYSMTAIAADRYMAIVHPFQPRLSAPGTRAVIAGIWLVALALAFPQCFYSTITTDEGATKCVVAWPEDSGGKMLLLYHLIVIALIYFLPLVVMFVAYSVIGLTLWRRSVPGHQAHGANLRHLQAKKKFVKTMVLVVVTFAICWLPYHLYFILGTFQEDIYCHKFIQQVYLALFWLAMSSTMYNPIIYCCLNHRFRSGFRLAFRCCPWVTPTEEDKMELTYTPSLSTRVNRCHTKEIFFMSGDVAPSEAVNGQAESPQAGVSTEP
Description: Tachykinin-mediated inositol phosphate accumulation was measured in UC11 or SKLKB82#3 cells in the presence and absence of NK1 or NK2 receptor antagonists, respectively. Tissues were incubated in Krebs-Henseleit buffer at 37° C. with 95% O2 -5% CO2 gassing. Tissues were then incubated with fresh buffer containing 100 μCi of myo-[2-^3 H(N)] inositol at 37° C. for 60 min with gentle gassing. After washing twice in 5 ml room temperature buffer containing 10 mM LiCl, tissues were incubated for 30 min at room temperature with a buffer change at 15 min. Buffer was removed and Krebs-Henseleit buffer (containing 40 μg/ml bacitracin, 4 μg/ml each of leupeptin and chymostatin, 0.1% bovine serum albumin and 10 mM each of thiorphan and LiCl) added. After 15 min, SP was added to UC11 cells or NKA to SKLKB82#3 cells at various concentrations to start the reaction. After incubation for 60 min at room temperature the reaction was terminated by addition of 930 μl chloroform:methanol (1:2 by volume) to each tube, followed by 310 μl chloroform and 310 μl doubly distilled water. Samples were vortexed, centrifuged, and 0.9 ml of the aqueous (top) phase removed and added to 2 ml ddH2 O. The mixture was vortexed and loaded onto a 50% Bio-Rad AG 1-X8 (formate form, 100-200 mesh) exchange column (Bio-Rad Laboratories, Hercules, Calif.). The columns were washed, in order, with: 1) 10 ml doubly distilled water, 2) 5 ml of 5 mM disodium tetraborate/60 mM sodium formate, and 3) 5 ml of 1M ammonium formate/0.1M formic acid. The third elution was collected and 1 ml counted in 7 ml scintillation fluid. A 50 μl aliquot of the organic (bottom) phase was removed, dried in a scintillation vial and counted in 7 ml scintillation fluid.
(§2) The ratio of DPM in the aqueous phase aliquot (total inositol phosphates) to the DPM in the 50 μl organic phase aliquot (total [^3 H]-inositol incorporated) was calculated for each sample. Data are expressed as a percent of agonist-induced accumulation of [^3 H]-inositol phosphates over basal levels. […] Dose-response graphs were constructed and the abilities of the test compounds to inhibit tachykinin-induced phosphatidyinositol turnover determined with the aid of a computer program. […] Data is expressed as percent stimulation of total inositol phosphate accumulation over basal levels and normalized to the maximum response produced by SP. […] Schild analysis is performed using dose response curves (such as those presented in FIGS. 1a and 1b) to obtain a value indicative of the Strength of a competitive antagonist and is expressed as the pA2, which is the negative logarithm of the molar concentration of antagonist which reduces the effect of a dose of agonist to one-half of that expected at the dose of agonist.

NK1 receptors = molecular target: T2, NK1 receptors (Cavia porcellus, UniProt P30547); experiment: Antagonism of SP-induced plasma protein extravasation in guinea pig trachea; type: in vivo; details: for relative potency as NK-1 receptor antagonists (in words): Example 3 versus its (+)-enantiomer Example 20A
T2 construct: measuring Evans Blue dye accumulation in guinea pig trachea; from tissue; host or cells: guinea pig trachea and primary bronchi, whole animal in vivo
Description: SP-induced protein leakage through postcapillary venules was assessed by measuring Evans Blue dye accumulation in guinea pig trachea. Animals were anesthetized with pentobarbital then injected with Evans Blue dye (20 mg/kg, i.v., prepared in 0.9% NaCl solution). One minute after dye administration, the antagonist was administered (i.v.) followed by SP (0.3 nmole/kg, i.v.) and, after 5 min, excess dye removed from the circulation by transcardiac perfusion with 50 ml 0.9% NaCl solution. The trachea and primary bronchi were removed, blotted dry and weighed. Dye quantitation was performed spectrophotometrically ([…]) after extracting tissues in formamide for 24 hr at 50° C. Values were subtracted from background (dye only, no agonist). ED50 (dose of compound which inhibits SP-induced plasma protein extravasation by 50%) was calculated from linear regression analysis.

[2] = molecular target: T3, NK1 receptor (UC11 cells) (Homo sapiens, UniProt P25103); experiment: Antagonism of NK1 receptor mediated (SP-induced) phosphatidylinositol turnover in UC11 cells; type: cell-based
T3 construct: endogenous in cells; host or cells: UC11 cells
Description: Tachykinin-mediated inositol phosphate accumulation was measured in UC11 or SKLKB82#3 cells in the presence and absence of NK1 or NK2 receptor antagonists, respectively. Tissues were incubated in Krebs-Henseleit buffer at 37° C. with 95% O2 -5% CO2 gassing. Tissues were then incubated with fresh buffer containing 100 μCi of myo-[2-^3 H(N)] inositol at 37° C. for 60 min with gentle gassing. After washing twice in 5 ml room temperature buffer containing 10 mM LiCl, tissues were incubated for 30 min at room temperature with a buffer change at 15 min. Buffer was removed and Krebs-Henseleit buffer (containing 40 μg/ml bacitracin, 4 μg/ml each of leupeptin and chymostatin, 0.1% bovine serum albumin and 10 mM each of thiorphan and LiCl) added. After 15 min, SP was added to UC11 cells or NKA to SKLKB82#3 cells at various concentrations to start the reaction. […] The third elution was collected and 1 ml counted in 7 ml scintillation fluid. A 50 μl aliquot of the organic (bottom) phase was removed, dried in a scintillation vial and counted in 7 ml scintillation fluid.
as §2

NK1 and NK2 receptors [3] = experiment: Antagonism of capsaicin aerosol-induced respiratory effects in conscious guinea pigs, intravenous; type: in vivo, guinea pig; details: for SRE NUMBER: coughs/gasps during 19 min capsaicin exposure, mean and SEM; for effect on capsaicin-induced respiratory effects (in words): i.v.
Description: as §1
(§3) During the course of a typical experiment in which airway responsiveness to various bronchoconstricting agents was examined, aerosols were delivered for 19 min (0.33 ml/min) using a DeVilbiss Ultraneb 99 ultrasonic nebulizer and animals monitored during this time. Prior to nebulization, 1 min of resting breathing was collected to establish a baseline pressure. […] The vehicle for nebulization of all bronchoconstrictive agents was phosphate buffered saline (pH 7.4) which elicited no respiratory effects itself. Putative tachykinin antagonists were administered either (i.v.) 20 min prior to onset of aerosol exposure or orally 1 hour prior to onset (to guinea pigs after an overnight fast).
(§4) Capsaicin aerosol is known to promote release of the tachykinins SP and NKA from sensory nerves in the airways of guinea pigs which may then act upon NK1 and NK2 receptors, respectively to elicit respiratory effects.

NK1 and NK2 receptors [4] = experiment: Antagonism of capsaicin aerosol-induced respiratory effects in conscious guinea pigs, oral; type: in vivo, guinea pig; details: for SRE NUMBER: coughs/gasps during 19 min capsaicin exposure, mean and SEM; for effect on capsaicin aerosol effects (in words): oral
Description: as §1, §3, §4

T2 sequence (P30547 whole entry): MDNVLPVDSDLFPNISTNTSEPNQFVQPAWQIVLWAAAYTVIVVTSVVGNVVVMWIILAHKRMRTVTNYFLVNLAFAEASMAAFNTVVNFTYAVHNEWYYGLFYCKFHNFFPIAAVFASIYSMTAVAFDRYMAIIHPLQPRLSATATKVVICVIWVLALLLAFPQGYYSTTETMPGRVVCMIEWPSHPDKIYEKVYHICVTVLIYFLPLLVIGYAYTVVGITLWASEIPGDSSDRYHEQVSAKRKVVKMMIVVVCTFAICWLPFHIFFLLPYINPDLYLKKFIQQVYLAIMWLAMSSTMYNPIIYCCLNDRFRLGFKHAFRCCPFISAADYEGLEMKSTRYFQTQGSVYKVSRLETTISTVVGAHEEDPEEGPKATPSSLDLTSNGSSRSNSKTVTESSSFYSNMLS
T3 sequence (P25103 whole entry): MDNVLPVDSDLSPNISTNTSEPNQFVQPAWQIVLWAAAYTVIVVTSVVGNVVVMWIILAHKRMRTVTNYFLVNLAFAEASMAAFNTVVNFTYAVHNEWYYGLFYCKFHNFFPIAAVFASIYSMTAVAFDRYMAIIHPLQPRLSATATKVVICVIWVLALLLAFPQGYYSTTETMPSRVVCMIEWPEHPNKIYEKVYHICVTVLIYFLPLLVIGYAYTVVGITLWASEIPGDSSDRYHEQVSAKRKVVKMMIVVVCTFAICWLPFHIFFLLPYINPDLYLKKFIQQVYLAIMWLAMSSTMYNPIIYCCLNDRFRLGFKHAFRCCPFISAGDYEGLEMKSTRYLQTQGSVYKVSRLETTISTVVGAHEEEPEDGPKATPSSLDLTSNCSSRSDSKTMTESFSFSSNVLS

Row | Compound | effect on NKA aerosol respiratory effects (in words) (NK2 receptor) | NK-2 RECEPTOR -SLOPE [1] | relative potency as NK-1 receptor antagonists (in words) (NK1 receptors) | SRE NUMBER (NK1 and NK2 receptors [3]; 10 mg/kg i.v.) | effect on capsaicin-induced respiratory effects (in words) (NK1 and NK2 receptors [3]) | effect on capsaicin aerosol effects (in words) (NK1 and NK2 receptors [4]) | other results
1 | COc1cccc(OC)c1C(=O)N1CCC(CCN2CCC(C(N)=O)(c3ccccc3)CC2)(c2ccc(Cl)c(Cl)c2)C1 (stereo not shown) [Example 5A, 1-[2-[3-(3,4-dichloro-phenyl)-1-(2,6-dimethoxy-benzoyl)-pyrrolidin-3-yl]-ethyl]-4-phenyl-piperidine-4-carboxylic acid amide hydrochloride] | reduced the effects of NKA aerosol | – | – | – | – | – | –
2 | COc1cc(C(=O)N2CCC(CCN3CCC(C(N)=O)(c4ccccc4)CC3)(c3ccc(Cl)c(Cl)c3)C2)cc(OC)c1OC (single isomer, unassigned; (+)) [Example 20] | – | 1.00 | – | – | – | – | –
3 | COc1cc(C(=O)N2CCC(CCN3CCC(C(N)=O)(c4ccccc4)CC3)(c3ccc(Cl)c(Cl)c3)C2)cc(OC)c1OC (stereo not shown) [Example 3, 1-[2-[3-(3,4-dichloro-phenyl)-1-(3,4,5-trimethoxy-benzoyl)-pyrrolidin-3-yl]-ethyl]-4-phenyl-piperidine-4-carboxylic acid amide] | reduced the effects of NKA aerosol | – | equipotent | – | – | – | antagonism of SP-induced plasma protein extravasation (in words) (NK1 receptors; FIG. 2): dose related antagonism; antagonism of SP induced PI turnover (in words) ([2]; FIG. 1a): dose related antagonism; agonist activity, PI turnover (in words) ([2]; compound alone): no agonist activity; antagonism of NKA induced PI turnover (in words) ([1]; FIG. 1b): dose related antagonism; agonist activity, PI turnover (in words) ([1]; compound alone): no agonist activity
4 | COc1cc(C(=O)N2CCC(CCN3CCC(C(N)=O)(c4ccccc4)CC3)(c3ccc(Cl)c(Cl)c3)C2)cc(OC)c1OC.Cl (single isomer, unassigned; (+)) [Example 20A, (+)-1-[2-[3-(3,4-dichloro-phenyl)-1-(3,4,5-trimethoxy-benzoyl)-pyrrolidin-3-yl]-ethyl]-4-phenyl-piperidine-4-carboxylic acid amide hydrochloride] | reduced the effects of NKA aerosol | – | equipotent | 3.3 ± 1.1 | attenuate capsaicin-induced respiratory effects | – | SRE NUMBER (NK1 and NK2 receptors [3]; 1 mg/kg i.v.): 9.9 ± 2.7; SRE NUMBER (NK1 and NK2 receptors [3]; 2.5 mg/kg i.v.): 8.3 ± 1.6; SRE NUMBER (NK1 and NK2 receptors [3]; 5 mg/kg i.v.): 4.4 ± 1.9
5 | COc1cc(C(=O)N2CCC(CCN3CCC(C(N)=O)(c4ccccc4)CC3)(c3ccc(Cl)c(Cl)c3)C2)cc(OC)c1OC (racemic) [Example 3A, 1-[2-[3-(3,4-dichloro-phenyl)-1-(3,4,5-trimethoxy-benzoyl)-pyrrolidin-3-yl]-ethyl]-4-phenyl-piperidine-4-carboxylic acid amide hydrochloride] | – | 0.73 | – | 8.50 ± 1.9 | attenuate capsaicin-induced respiratory effects | antagonize the effects of capsaicin aerosol | SRE NUMBER (NK1 and NK2 receptors [4]; 25 mg/kg oral): 4.6 ± 1.0; SRE NUMBER (NK1 and NK2 receptors [4]; 50 mg/kg oral): 2.8 ± 0.8; SRE NUMBER (NK1 and NK2 receptors [4]; 100 mg/kg oral): 2.1 ± 0.5; NK-1 RECEPTOR -SLOPE ([2]; Schild analysis, SP, mean (95% confidence limits)): 0.90
6 | COc1cccc(OC)c1C(=O)N1CCC(CCN2CCC(C(N)=O)(c3ccccc3)CC2)(c2ccc(Cl)c(Cl)c2)C1 (stereo not shown) [Example 5] | – | – | – | – | – | antagonize the effects of capsaicin aerosol | –
